Data published in PMC11191402, “High-Affinity NIR-Fluorescent Inhibitors for Tumor Imaging via Carbonic Anhydrase IX” (Bioconjugate Chemistry, 2024).
pKd: −log10 of the molar value.

What was measured:
[1] = biological target: T1, CAIX expressed on cell membranes of HeLa cells (Homo sapiens, UniProt Q16790); assay: Fluorescence microscopy staining of live HeLa cells; format: cell-based; details: for staining of HeLa cells (NIR fluorescence microscopy): 250 nM compound, pCMV-CAIX-transfected cells, normoxia
T1 construct: an open reading frame for the full-length CAIX protein (1–459 amino acids) without a tag; expressed in transfected cells; host or cells: HeLa cells transfected with pCMV-CAIX (TurboFect), normoxia
Source text: Live HeLa cell culture was used for visualization of the NIR-fluorescent compound binding to CAIX expressed on cell membranes (Figures 3 and S2). […] Hypoxic conditions were insufficient for CAIX-specific fluorescence detection (Figure S3). Transfected cells expressed 10-fold more CAIX protein than cells grown under hypoxia, as determined by dosing the fluorescein-containing compound GZ19-32. […] We should point out that microphotographs in Figures 3 and S2 were taken at different exposure times to ensure good visualization quality. Nevertheless, all four compounds were suitable for direct visualization of CAIX expressed on transfected cell membranes.
For visualization of CAIX in live cells, HeLa cells were seeded in 12-well plates, and the next day they were transfected with the pCMV-CAIX plasmid to induce CAIX expression under normoxia. The TurboFect Transfection Reagent (Thermo Fisher) was used for this purpose according to manufacturer’s directions. Cells were stained and visualized next day after transfection. Nontransfected cells, grown under normoxia, were used as a control. For the induction of CAIX expression without transfection, cells were cultured under hypoxia for 3 days.
For cell imaging, live cells were incubated with the recombinant monoclonal antibody to CAIX (M75) (Absolute Antibody, #Ab00414–1.1) in the CO2 incubator for 30 min. The antibody stock solution (1 mg/mL) was used at a dilution of 1:150 in FluoroBright (FB)(Thermo Fisher) medium. After washing (3 × 5 min with DMEM in RT, gentle rock), cells were incubated with secondary Alexa Fluor 488 goat antimouse antibodies (2 mg/mL, Thermo Fisher), at a dilution of 1:200 in FB, in a CO2 incubator for 30 min. After washing (3 × 5 min with DMEM in RT and 2 × 1 min with PBS), cells were incubated with NIR-fluorescent inhibitors ([…] in PBS) in a CO2 incubator for 5–8 min. After washing (2 min + 2 × 1 min with PBS), PBS was replaced by FB, and 15 μL of NucBlue Live Cell Stain ReadyProbes reagent (Thermo Fisher) was added per well. After 5 min, cells were observed and photographed using an automated fluorescence microscope EVOS FL Auto (Thermo Fisher).

[2] = Absorption, emission and fluorescence quantum yield measurement; format: physicochemical; details: for λabs: absorption spectrum; for λem (fluorescence maximum): emission spectrum
Method: Figure S1. Absorption and emission spectra of NIR inhibitors. GZ22-1 λ abs= 783 nm, λ em= 807
Norm. absorption (arb. units)
Norm. photoluminescence (arb. units)
Norm absorption (arb. units) […]
Table S1. Fluorescence quantum yield comparison of NIR-fluorescent compounds. Compound
concentration was 100 nM in PBS. L a-c – excitation radiation integrals, P b-c – fluorescence
Nr. Compound Excitation La Lb Lc A(1) Pb Pc QY(2)
(1)Sample absorbance . (2)Fluorescence quantum yield: .LPc―(1―A)Pb […]

human recombinant CAXIV = biological target: T2, human recombinant CAXIV (Homo sapiens, UniProt Q9ULX7); assay: Fluorescence-based thermal shift assay (FTSA), CAXIV; format: binding; details: 37 °C, pH 7.0
T2 construct: Most isozymes were truncated, and only the catalytic domains of the proteins were produced; made in house; host or cells: bacterial expression system
T2 sequence (Q9ULX7 20-278 limits assumed): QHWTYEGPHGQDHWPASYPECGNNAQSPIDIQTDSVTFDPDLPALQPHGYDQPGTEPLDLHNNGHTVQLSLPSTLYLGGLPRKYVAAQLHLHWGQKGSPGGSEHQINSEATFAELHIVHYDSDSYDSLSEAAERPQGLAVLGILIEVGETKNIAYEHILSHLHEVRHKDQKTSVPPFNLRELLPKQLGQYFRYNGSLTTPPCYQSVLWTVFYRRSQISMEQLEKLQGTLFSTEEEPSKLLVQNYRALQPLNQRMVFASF
Method: The binding affinities of the four NIR-fluorescent compounds to 12 catalytically active recombinant CA isozymes were determined by the fluorescence-based thermal shift assay (FTSA), and the dissociation constants (Kd’s) at physiological pH (pH 7.0) and 37 °C are listed in Table 1.
All 12 catalytically active human CA isozymes were prepared recombinantly as previously described. Most isozymes were truncated, and only the catalytic domains of the proteins were produced.[9],[56] All isozymes were expressed in a bacterial expression system except that CAIX was expressed in mammalian cells. The proteins were chromatographically purified via immobilized metal affinity chromatography, ion-exchange, or p-aminomethylbenzenesulfonamide-sepharose affinity chromatography. Protein purity was confirmed by SDS-PAGE, and MW was confirmed by mass spectrometry with 1 Da precision, as predicted from theoretical protein sequence.
The fluorescence-based thermal shift assay (FTSA) was used to determine the binding affinity of compounds for all catalytically active CA isozymes. The assay is based on the thermal stabilization of proteins by bound ligands and distinguishes itself in its ability to determine extremely high affinity (picomolar Kd) of compound binding to CAIX. The experiments were performed with a QIAGEN Rotor-Gene Q instrument using either the blue channel (365 ± 20 nm excitation and 460 ± 15 nm emission detection) or the green channel (470 ± 10 nm excitation and 510 ± 5 nm detection). The protein solution, in the absence and presence of various compound concentrations ranging from 3 to 200 μM (2× dilutions), was heated from 25 to 99 °C (heating rate, 1 °C/min). The CA isozyme melting temperature Tm was determined by following the fluorescence of 8-anilino-1-naphthalenesulfonate (ANS) or Glomelt dye. The samples consisted of 5 μM protein (or 10 μM CAIV), different concentrations of the tested compound, and 50 μM ANS or 200× diluted Glomelt in 50 mM sodium phosphate buffer (at pH 7.0) containing 100 mM sodium chloride and 2–4% (v/v) dimethyl sulfoxide. To obtain the dissociation constant (at 37 °C), data analysis was performed, and the curves were fit using the Thermott Web server.[57]

CC1(C)C(/C=C/C2=C(NCCCOCCOCCOCCCNC(=O)CCC(=O)NCCS(=O)(=O)c3c(F)c(F)c(S(N)(=O)=O)c(F)c3NC3CCCCCCC3)C(=C/C=C3\N(CCCCS(=O)(=O)[O-])c4ccccc4C3(C)C)/CCC2)=[N+](CCCCS(=O)(=O)[O-])c2ccccc21.[Na+] [AZ21-6, Sodium 4-((Z)-2-((E)-2-(2-((1-((2-(Cyclooctylamino)-3,5,6-trifluoro-4-sulfamoylphenyl)sulfonyl)-4,7-dioxo-12,15,18-trioxa-3,8-diazahenicosan-21-yl)amino)-3-((E)-2-(3,3-dimethyl-1-(4-sulfonatobutyl)-3H-indol-1-ium-2-yl)vinyl)cyclohex-2-en-1-ylidene)ethylidene)-3,3-dimethylindolin-1-yl)butane-1-sulfonate]
staining of HeLa cells (NIR fluorescence microscopy) [1]: stained the membranes of pCMV-CAIX-transfected cells
QY (fluorescence quantum yield) ([2]; 100 nM in PBS, excitation 650nm): 0.43
λabs [2]: 637 nm
pKd (human recombinant CAXIV): 7.00

CC1(C)C(/C=C/C2=C(Oc3cccc(CC(=O)NCCCOCCOCCOCCCNC(=O)CCS(=O)(=O)c4c(F)c(F)c(S(N)(=O)=O)c(F)c4NC4CCCCCCC4)c3)C(=C/C=C3\N(CCCCS(=O)(=O)[O-])c4ccccc4C3(C)C)/CCC2)=[N+](CCCCS(=O)(=O)[O-])c2ccccc21.[Na+] [GZ21-19, Sodium 4-((Z)-2-((E)-2-(2-(3-(20-((2-(Cyclooctylamino)-3,5,6-trifluoro-4-sulfamoylphenyl)sulfonyl)-2,18-dioxo-7,10,13-trioxa-3,17-diazaicosyl)phenoxy)-3-((E)-2-(3,3-dimethyl-1-(4-sulfonatobutyl)-3H-indol-1-ium-2-yl)vinyl)cyclohex-2-en-1-ylidene)ethylidene)-3,3-dimethylindolin-1-yl)butane-1-sulfonate]
staining of HeLa cells (NIR fluorescence microscopy) [1]: stained the membranes of pCMV-CAIX-transfected cells
λabs [2]: 783 nm
λem (fluorescence maximum) [2]: 805 nm
pKd (human recombinant CAXIV): 7.00

CC1(C)C(/C=C/C2=C(Oc3ccc(CCC(=O)NCCCOCCOCCOCCCNC(=O)CCS(=O)(=O)c4c(F)c(F)c(S(N)(=O)=O)c(F)c4NC4CCCCCCC4)cc3)C(=C/C=C3\N(CCCCS(=O)(=O)[O-])c4ccccc4C3(C)C)/CCC2)=[N+](CCCCS(=O)(=O)[O-])c2ccccc21.[Na+] [GZ22-1, Sodium 4-((Z)-2-((E)-2-(2-(4-(21-((2-(Cyclooctylamino)-3,5,6-trifluoro-4-sulfamoylphenyl)sulfonyl)-3,19-dioxo-8,11,14-trioxa-4,18-diazahenicosyl)phenoxy)-3-((E)-2-(3,3-dimethyl-1-(4-sulfonatobutyl)-3H-indol-1-ium-2-yl)vinyl)cyclohex-2-en-1-ylidene)ethylidene)-3,3-dimethylindolin-1-yl)butane-1-sulfonate]
staining of HeLa cells (NIR fluorescence microscopy) [1]: stained the membranes of pCMV-CAIX-transfected cells
λabs [2]: 783 nm
λem (fluorescence maximum) [2]: 807 nm
pKd (human recombinant CAXIV): 7.00

CC1(C)C(/C=C/C2=C(Oc3ccc(CCC(=O)NCCOCCOCCOCCOCCOCCOCCOCCOCCOCCOCCOCCNC(=O)CCS(=O)(=O)c4c(F)c(F)c(S(N)(=O)=O)c(F)c4NC4CCCCCCC4)cc3)C(=C/C=C3\N(CCCCS(=O)(=O)[O-])c4ccccc4C3(C)C)/CCC2)=[N+](CCCCS(=O)(=O)[O-])c2ccccc21.[Na+] [GZ22-4, Sodium 4-((Z)-2-((E)-2-(2-(4-(43-((2-(Cyclooctylamino)-3,5,6-trifluoro-4-sulfamoylphenyl)sulfonyl)-3,41-dioxo-7,10,13,16,19,22,25,28,31,34,37-undecaoxa-4,40-diazatritetracontyl)phenoxy)-3-((E)-2-(3,3-dimethyl-1-(4-sulfonatobutyl)-3H-indol-1-ium-2-yl)vinyl)cyclohex-2-en-1-ylidene)ethylidene)-3,3-dimethylindolin-1-yl)butane-1-sulfonate]
staining of HeLa cells (NIR fluorescence microscopy) [1]: stained the membranes of pCMV-CAIX-transfected cells
fluorescence signal compared to the other compounds at identical exposure conditions ([1]; 250 nM, transfected HeLa, Cy7 filter): best fluorescence signal
λabs [2]: 783 nm
λem (fluorescence maximum) [2]: 807 nm
pKd (human recombinant CAXIV): 7.05
